Experimental data from ChEMBL document CHEMBL3046172, “Synthesis and Insecticidal Activity of New 2- and 6-Substituted 4-Acetoxyquinolines” (1997).

Tests used:
Type in all cases: functional
Bombyx mori [1] = test: Insecticidal activity against Bombyx mori Syogetsu x Syunrei third-instar larvae assessed as insect mortality upon topical application at 1 ug measured 48 hr post compound treatment
Bombyx mori [2] = test: Insecticidal activity against Bombyx mori Syogetsu x Syunrei third-instar larvae assessed as insect mortality upon topical application at 0.3 ug measured 48 hr post compound treatment
Bombyx mori [3] = test: Insecticidal activity against Bombyx mori Syogetsu x Syunrei third-instar larvae assessed as insect mortality upon topical application at 3 ug measured 48 hr post compound treatment
Bombyx mori [4] = test: Insecticidal activity against Bombyx mori Syogetsu x Syunrei third-instar larvae assessed as insect mortality upon topical application at 10 ug measured 48 hr post compound treatment
Plutella xylostella [5] = test: Insecticidal activity against Plutella xylostella (diamondback moth) third-instar larvae reared on cabbage plants leaves pre-treated with 500 ppm compound assessed as insect mortality measured 2 days post compound treatment
Plutella xylostella [6] = test: Insecticidal activity against Plutella xylostella (diamondback moth) third-instar larvae reared on cabbage plants leaves pre-treated with 250 ppm compound assessed as insect mortality measured 2 days post compound treatment
Spodoptera litura [7] = test: Insecticidal activity against Spodoptera litura third-instar larvae reared on artificial diets of Insecta LF assessed as insect mortality at 250 ppm measured 2 days post compound treatment; details: 48 h
Spodoptera litura [8] = test: Insecticidal activity against Spodoptera litura third-instar larvae reared on artificial diets of Insecta LF assessed as insect mortality at 125 ppm measured 2 days post compound treatment; details: 48 h
Plutella xylostella [9] = test: Insecticidal activity against Plutella xylostella (diamondback moth) third-instar larvae reared on cabbage plants leaves pre-treated with 1000 ppm compound assessed as insect mortality measured 2 days post compound treatment
Spodoptera litura [10] = test: Insecticidal activity against Spodoptera litura third-instar larvae reared on artificial diets of Insecta LF assessed as insect mortality at 500 ppm measured 2 days post compound treatment; details: 48 h
Bombyx mori [11] = test: Insecticidal activity against Bombyx mori Gunpo x Shugyoku third-instar larvae assessed as insect mortality upon topical application at 10 ug measured 48 hr post compound treatment

| SMILES | mortality (Bombyx mori [1]) [%] | mortality (Bombyx mori [2]) [%] | mortality (Bombyx mori [3]) [%] | mortality (Bombyx mori [4]) [%] | further results |
| --- | --- | --- | --- | --- | --- |
| CCCCCCC/C=C/c1nc2ccccc2c(OC(C)=O)c1C | 76 | 70 | 100 | – | – |
| CCCCCCCCCc1nc2ccccc2c(OC(C)=O)c1C | 15 | – | 100 | 100 | – |
| CCCCCCCc1nc2ccccc2c(OC(C)=O)c1C | 10 | 0 | 100 | 100 | – |
| CCCCCCc1nc2ccccc2c(OC(C)=O)c1C | 10 | – | 100 | 100 | – |
| CCCCCc1nc2ccccc2c(OC(C)=O)c1C | 0 | – | 40 | 100 | – |
| CCCCc1nc2ccccc2c(OC(C)=O)c1C | – | – | 35 | 95 | – |
| CCCc1nc2ccccc2c(OC(C)=O)c1C | – | – | 0 | 0 | – |
| CCc1nc2ccccc2c(OC(C)=O)c1C | 95 | 0 | 100 | – | – |
| CC(=O)Oc1c(C)c(C)nc2ccccc12 | 0 | – | 71 | 100 | – |
| CCCCCCCCCc1nc2ccc(F)cc2c(OC(C)=O)c1C | – | – | – | 10 | – |
| CCCCCCc1nc2ccc(F)cc2c(OC(C)=O)c1C | 0 | – | 60 | 75 | – |
| CCc1nc2ccc(F)cc2c(OC(C)=O)c1C | 100 | 70 | – | – | mortality at 500 ppm (Plutella xylostella [5]): 70%; mortality at 250 ppm (Plutella xylostella [6]): 42.5%; mortality at 250 ppm (Spodoptera litura [7]): 90%; mortality at 125 ppm (Spodoptera litura [8]): 55%; mortality at 1000 ppm (Plutella xylostella [9]): 97.5%; mortality at 500 ppm (Spodoptera litura [10]): 100% |
| CC(=O)Oc1c(C)c(C)nc2ccc(F)cc12 | 95 | 0 | 100 | – | – |
| C=Cc1nc2ccccc2c(OC(C)=O)c1C | – | – | – | – | mortality (Bombyx mori [11]): 0% |
| C/C=C/c1nc2ccccc2c(OC(C)=O)c1C | – | – | – | 0 | – |
| CCCCCCC/C=C/c1nc2ccc(F)cc2c(OC(C)=O)c1C | – | – | – | 0 | – |
| CCCCCCC/C=C\c1nc2ccc(F)cc2c(OC(C)=O)c1C | 10 | 0 | 100 | 100 | – |
